Results published in patent publication US20260285853A1, “COMPOUNDS AND METHODS FOR MODULATING SPLICING” (REMIX THERAPEUTICS INC., priority 2023, published 2026).
Where two headings read alike, the source gives them in different places.

Key:
Assay type in all cases: cell-based
[1] = tested on: HTT mRNA; test: Splicing RT-qPCR assay (THP), Table 2A
[2] = tested on: MYB mRNA; test: Splicing RT-qPCR assay (THP), Table 2A
[3] = tested on: HTT mRNA; test: Gene panel canonical junction qPCR assay, decrease in CJ mRNA, Table 3
Outline: (§1)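 IC50 is the concentration giving 50% response in decrease of the canonical junction transcript, fitted with a 4-parameter logistic equation. Transcripts were quantified by RT-qPCR in A673 or K562 cells after 24 h exposure to compounds dosed up to 10 uM in 3-fold steps.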

[4] = tested on: MYB mRNA; test: as above
Outline: as §1

[5] = tested on: SH-SY5Y (human neuroblastoma) cells; test: Cell viability, Cell Titer Glo 2.0 assay; details: read-out: Viability SHSY5Y.3 GI50
Outline: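 Steps: serial DMSO dilution of compound, 1:100 dilution into medium, addition to cells (0.1% DMSO final). Incubate 72 h at 37 °C, 5% CO2. Assay with CellTiter-Glo 2.0 reagent.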

[6] = Table 2A (THP), AJ mRNA increase, read-out: HTT AJ (increase in alternative junction mRNA, AC50)
[7] = Table 2A (THP), CJ mRNA decrease, read-out: HTT CJ (decrease in canonical junction mRNA, IC50)
[8] = Table 2A (THP), AJ mRNA increase, read-out: MYB AJ (increase in alternative junction mRNA, AC50)
[9] = Table 2A (THP), CJ mRNA decrease, read-out: MYB CJ (decrease in canonical junction mRNA, IC50)
[10] = decrease in canonical junction (CJ) mRNA, gene panel qPCR, Table 3
[11] = Table 2A, THP, HTT alternative junction (AJ) mRNA, read-out: HTT AJ (AC50, increase in alternative junction mRNA)
[12] = Table 2A, THP, HTT canonical junction (CJ) mRNA, read-out: HTT CJ (IC50, decrease in canonical junction mRNA)
[13] = Table 2A, THP, MYB alternative junction (AJ) mRNA, read-out: MYB AJ (AC50, increase in alternative junction mRNA)
[14] = Table 2A, THP, MYB canonical junction (CJ) mRNA, read-out: MYB CJ (IC50, decrease in canonical junction mRNA)
[15] = decrease in CJ mRNA levels, canonical junction qPCR, gene panel

Row | IC50 [1, 7] | IC50 [2, 9] | IC50 [3, 10] | IC50 [4, 10] | GI50 [5] | IC50 [1, 12] | IC50 [2, 14] | IC50 [3, 15] | IC50 [4, 15] | SMILES | AC50 [1, 6] | AC50 [2, 8] | AC50 [1, 11] | AC50 [2, 13]
1 | 0.1 to 1 µM | 100 to 1000 nM | 0.1 to 1 µM | 100 to 1000 nM | 100 to 1000 nM | – | – | – | – | COc1c(NC(=O)c2ccc(N3CCC(NC4CC4)CC3)c3cn(C)nc23)cc2cn(C)nc2c1Cl [Compound 461, N-(7-chloro-6-methoxy-2-methyl-indazol-5-yl)-4-[4-(cyclopropylamino)-1-piperidyl]-2-methyl-indazole-7-carboxamide] | 0.1 to 1 µM | 100 to 1000 nM | – | –
2 | – | – | – | – | 100 to 1000 nM | 1 to 10 µM | < 100 nM | 1 to 10 µM | < 100 nM | COc1nc2c(C(=O)Nc3cc(F)c4nn(C)cc4c3)ccc(N3C[C@H](C)N(C)[C@@H](C)C3)c2s1 [Compound 767, N-(7-fluoro-2-methyl-indazol-5-yl)-2-methoxy-7-[(3S,5S)-3,4,5-trimethylpiperazin-1-yl]-1,3-benzothiazole-4-carboxamide] | – | – | 1 to 10 µM | < 100 nM
3 | 1 to 10 µM | 100 to 1000 nM | 1 to 10 µM | 100 to 1000 nM | > 10000 nM | – | – | – | – | COc1cc2nn(C)cc2cc1NC(=O)c1ccc(N2CC3CNCC3C2)c2cn(C)nc12 (stereo not drawn) [Compound 514] | 1 to 10 µM | 100 to 1000 nM | – | –
4 | > 10 µM | > 10000 nM | > 10 µM | > 10000 nM | > 10000 nM | – | – | – | – | CCNC1CCN(c2ccc(C(=O)Nc3cc(C(=O)NC)c4nc(C)cn4c3)c3nn(C)cc23)CC1 [Compound 319, 4-(4-(ethylamino)-piperidin-1-yl)-2-methyl-N-(2-methyl-8-(methylcarbamoyl)-imidazo[1,2-a]-pyridin-6-yl)-2H-indazole-7-carboxamide 2,2,2-trifluoroacetate] | > 10 µM | > 10000 nM | – | –
5 | – | – | – | – | 1000 to 10000 nM | > 10 µM | > 10000 nM | > 10 µM | > 10000 nM | COc1cc2nn(C)cc2cc1NC(=O)c1cc(C)c(N2CCC(NC3CC3)CC2)c2cn(C)nc12 [Compound 696] | – | – | > 10 µM | > 10000 nM
6 | > 10 µM | > 10000 nM | > 10 µM | > 10000 nM | 1000 to 10000 nM | – | – | – | – | Cc1cc2oc(NC(=O)c3c(F)cc(N4CCC(NC5CC5)CC4)c4cn(C)nc34)cc2c(C)n1 [Compound 491, 4-[4-(cyclopropylamino)-1-piperidyl]-N-(4,6-dimethyl-furo[3,2-c]pyridin-2-yl)-6-fluoro-2-methyl-indazole-7-carboxamide] | > 10 µM | > 10000 nM | – | –
7 | > 10 µM | > 10000 nM | > 10 µM | > 10000 nM | > 10000 nM | – | – | – | – | Cn1cc2cc(NC(=O)c3c(F)cc(N4CCC(NC5CC5)CC4)c4cn(C)nc34)c(Cl)cc2n1 [Compound 439, N-(6-chloro-2-methyl-indazol-5-yl)-4-[4-(cyclopropylamino)-1-piperidyl]-6-fluoro-2-methyl-indazole-7-carboxamide] | > 10 µM | > 10000 nM | – | –
8 | – | – | – | – | > 10000 nM | > 10 µM | > 10000 nM | > 10 µM | > 10000 nM | CCNC1CCN(c2ccc(C(=O)Nc3cc(CCc4nnc[nH]4)c4nn(C)cc4c3)c3nn(C)cc23)CC1 [Compound 878] | – | – | > 10 µM | > 10000 nM
9 | 0.1 to 1 µM | < 100 nM | 0.1 to 1 µM | < 100 nM | 1000 to 10000 nM | – | – | – | – | CCNC1CCN(c2cc(F)c(C(=O)Nc3cn4cc(C)nc4cc3OC)c3nn(C)cc23)CC1 [Compound 331, 4-[4-(ethylamino)-1-piperidyl]-6-fluoro-N-(7-methoxy-2-methyl-imidazo [1,2-a]pyridin-6-yl)-2-methyl-indazole-7-carboxamide] | 0.1 to 1 µM | < 100 nM | – | –
10 | > 10 µM | > 10000 nM | > 10 µM | > 10000 nM | > 10000 nM | – | – | – | – | CNCC1CCCN(c2ccc(C(=O)Nc3cn4cc(C)nc(C)c4n3)c3nn(C)cc23)C1 (stereo not drawn) [Compound 534] | > 10 µM | > 10000 nM | – | –
11 | – | – | – | – | 1000 to 10000 nM | > 10 µM | 1000 to 10000 nM | > 10 µM | 1000 to 10000 nM | Cn1cc2cc(NC(=O)c3ccc(N4CCC(NC5CC5)CC4)c4cn(C)nc34)cc(Cn3nccn3)c2n1 [Compound 824] | – | – | > 10 µM | 1000 to 10000 nM
12 | – | – | – | – | 100 to 1000 nM | > 10 µM | < 100 nM | > 10 µM | < 100 nM | COc1nc2c(C(=O)Nc3cc(F)c4nn(C)cc4c3)ccc(N3CCN[C@@H](C(C)C)C3)c2s1 [Compound 732] | – | – | > 10 µM | < 100 nM
13 | – | – | – | – | 1000 to 10000 nM | > 10 µM | 100 to 1000 nM | > 10 µM | 100 to 1000 nM | CCNC1CCN(c2ccc(C(=O)Nc3cn4cc(C)nc(C)c4n3)c3nc(C)cn23)CC1 [Compound 612, N-(6,8-dimethyl-imidazo-[1,2-a]pyrazin-2-y1)-5-[4-(ethylamino)-1-piperidyl]-2-methyl-imidazo[1,2-a]pyridine-8-carboxamide] | – | – | > 10 µM | 100 to 1000 nM
14 | – | – | – | – | 100 to 1000 nM | 0.1 to 1 µM | 100 to 1000 nM | 0.1 to 1 µM | 100 to 1000 nM | C[C@H]1CN(c2ccc(C(=O)Nc3cc(F)c4nn(C)cc4c3)c3nc(CNS(C)(=O)=O)sc23)C[C@H](C)N1 [Compound 706, 7-[(3S,5S)-3,5-dimethylpiperazin-1-yl]-N-(7-fluoro-2-methyl-indazol-5-yl)-2-(methanesulfonamidomethyl)-1,3-benzothiazole-4-carboxamide] | – | – | 0.1 to 1 µM | < 100 nM
15 | > 10 µM | 1000 to 10000 nM | > 10 µM | 1000 to 10000 nM | 1000 to 10000 nM | – | – | – | – | COc1c(NC(=O)c2c(F)cc(N3CCC(NC4CC4)CC3)c3cn(C)nc23)cn2cc(C)nc2c1C [Compound 397, 4-[4-(cyclopropylamino)-1-piperidy1]-6-fluoro-N-(7-methoxy-2,8-dimethyl-imidazo[1,2-a]pyridin-6-y1)-2-methyl-indazole-7-carboxamide] | > 10 µM | 1000 to 10000 nM | – | –
16 | > 10 µM | > 10000 nM | > 10 µM | > 10000 nM | 100 to 1000 nM | – | – | – | – | Cc1cn2cc(NC(=O)c3c(F)cc(NCC4CCNCC4)c4cn(C)nc34)nc2c(C)n1 [Compound 465, N-(6,8-dimethylimidazo[1,2-a]pyrazin-2-yl)-6-fluoro-2-methyl-4-(4-piperidylmethylamino)indazole-7-carboxamide] | > 10 µM | > 10000 nM | – | –
17 | – | – | – | – | > 10000 nM | > 10 µM | 1000 to 10000 nM | > 10 µM | 1000 to 10000 nM | CNC1CCN(c2ccc(C(=O)Nc3cn4cc(C)nc(CNS(C)(=O)=O)c4n3)c3nn(C)cc23)CC1 [Compound 825] | – | – | > 10 µM | 1000 to 10000 nM
18 | 1 to 10 µM | 100 to 1000 nM | 1 to 10 µM | 100 to 1000 nM | 100 to 1000 nM | – | – | – | – | CCNC1CCN(c2ccc(C(=O)Nc3cc(Oc4ccc(Cl)cc4)c4nc(C)cn4c3)c3nn(C)cc23)CC1 [Compound 325, N-[8-(4-chloro-phenoxy)-2-methylimidazo[1,2-a]-pyridin-6-yl]-4-[4-(ethylamino)-1-piperidyl]-2-methyl-indazole-7-carboxamide] | 1 to 10 µM | < 100 nM | – | –
19 | – | – | – | – | < 100 nM | 0.1 to 1 µM | < 100 nM | 0.1 to 1 µM | < 100 nM | COc1nc2c(C(=O)Nc3cc(F)c4nc(C)cn4c3)ccc(N3C[C@H](C)N[C@@H](C)C3)c2s1 [Compound 705, 7-[(3S,5S)-3,5-dimethylpiperazin-1-yl]-N-(8-fluoro-2-methyl-imidazo[1,2-a]pyridin-6-yl)-2-methoxy-1,3-benzothiazole-4-carboxamide] | – | – | 0.1 to 1 µM | < 100 nM
20 | – | – | – | – | > 10000 nM | > 10 µM | 1000 to 10000 nM | > 10 µM | 1000 to 10000 nM | CCNC1C(C)CN(c2ccc(C(=O)Nc3cc4cn(C)nc4cc3OC)c3nn(C)cc23)CC1C (stereo not drawn) [Compound 687] | – | – | > 10 µM | 1000 to 10000 nM

Row | SMILES | IC50 [1, 7] | IC50 [2, 9] | IC50 [3, 10] | IC50 [4, 10] | GI50 [5] | IC50 [1, 12] | IC50 [2, 14] | IC50 [3, 15] | IC50 [4, 15] | AC50 [1, 6] | AC50 [2, 8] | AC50 [1, 11] | AC50 [2, 13]
21 | COc1cc2nn(C)cc2cc1NC(=O)c1c(F)cc(N2[C@@H]3CC[C@H]2C[C@@H](NC2CC2)C3)c2cn(C)nc12 [Compound 428, 4-[(1R,5S)-3-(cyclo-propyl-amino)-8-azabicyclo [3.2.1]octan-8-yl]-6-fluoro-N-(6-methoxy-2-methyl-indazol-5-yl)-2-methyl-indazole-7-carboxamide] | > 10 µM | 1000 to 10000 nM | > 10 µM | 1000 to 10000 nM | 1000 to 10000 nM | – | – | – | – | > 10 µM | 1000 to 10000 nM | – | –
